# Where “and” joins values, the source holds several entries; their conditions need not be identical. Equal values may be shown once.
# System: WM3248 melanoma cells, 486 antibodies
# Test: Reverse phase protein arrays (RPPA);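 on CA9.R.C RPPA level: ratio of treated to vehicle (0 µM) normalized linear protein signal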;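 on CD171.M.V RPPA level: ratio of treated to vehicle (0 µM) normalized linear protein signal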;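 on CREB pS133.R.C RPPA level: ratio of treated to vehicle (0 µM) normalized linear protein signal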;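 on Cyclin.B1.R.V RPPA level: ratio of treated to vehicle (0 µM) normalized linear protein signal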
# Type: cell-based, Human
# Settings: 20 uM
# Text: Pellets were snap frozen in liquid nitrogen and shipped to MD Anderson Cancer Center core RPPA facility for RPPA analysis (Table S5). Three biological replicates for each sample were generated.
# Nomenclatures on the RPPA heatmaps: name_of_antibody.species_of_antibody.status_of_antibody. V - antibody validated; C - validation of antibody in progress; Q - antibody nonspecific; E – under evaluation; antibodies raised in M - mouse, G - goat, R - rabbit, or T - rat.
structure (smiles),measurement,setting,value
"CN(C)c1cccc(Nc2cc(-c3ccccc3)nc(C3CCNCC3)n2)c1 [ARN22089, N1,N1-dimethyl-N3-(6-phenyl-2-(piperidin-4-yl)pyrimidin-4-yl)benzene-1,3-diamine]","RPPA signal, antibody UQCRC2.M.C",individual replicates,0.993 and 0.916 and 0.753
same,"RPPA signal, antibody UVRAG.R.C",individual replicates,0.916 and 1.111 and 1.110
same,"RPPA signal, antibody VASP.R.V",individual replicates,1.010 and 0.872 and 0.975
same,"RPPA signal, antibody VAV1.R.C",individual replicates,0.958 and 1.058 and 1.057
same,"RPPA signal, antibody VEGFR.2.R.V",individual replicates,0.883 and 0.823 and 1.079
same,"RPPA signal, antibody VEGFR.2_pY1175.R.C",individual replicates,1.118 and 0.976
same,"RPPA signal, antibody VHL.EPPK1.M.C",individual replicates,1.005 and 1.203 and 0.853
same,"RPPA signal, antibody VHL.R.C",individual replicates,0.953 and 0.849
same,"RPPA signal, antibody Vinculin.M.V",individual replicates,0.888 and 0.854 and 0.998
same,"RPPA signal, antibody WIPI1.R.C",individual replicates,1.160 and 1.238 and 1.145
same,"RPPA signal, antibody WIPI2.R.C",individual replicates,1.015 and 1.158 and 1.252
same,"RPPA signal, antibody WTAP.R.V",individual replicates,1.419 and 1.174 and 0.998
same,"RPPA signal, antibody Wee1.R.C",individual replicates,0.776 and 1.131 and 1.126
same,"RPPA signal, antibody Wee1_pS642.R.C",individual replicates,0.845 and 1.173 and 1.116
same,"RPPA signal, antibody XBP.1.G.C",individual replicates,0.989 and 0.988
same,"RPPA signal, antibody XIAP.R.C",individual replicates,0.944 and 0.910 and 1.125
same,"RPPA signal, antibody XPA.M.V",individual replicates,0.967 and 1.026
same,"RPPA signal, antibody XPF.R.C",individual replicates,0.937 and 0.898 and 1.023
same,"RPPA signal, antibody XRCC1.R.C",individual replicates,1.008 and 1.026
same,"RPPA signal, antibody YAP.R.C",individual replicates,1.004 and 1.030 and 0.945
same,"RPPA signal, antibody YAP_pS127.R.V",individual replicates,1.152 and 0.978 and 0.976
same,"RPPA signal, antibody YB1_pS102.R.V",individual replicates,1.029 and 0.913 and 1.102
same,"RPPA signal, antibody YES1.R.V",individual replicates,1.048 and 0.896 and 0.978
same,"RPPA signal, antibody YTHDF2.R.V",individual replicates,1.166 and 0.983 and 0.917
same,"RPPA signal, antibody YTHDF3.R.C",individual replicates,0.960 and 0.870
same,"RPPA signal, antibody ZAP.70.R.V",individual replicates,0.979 and 0.883 and 0.925
same,"RPPA signal, antibody ZEB1.R.V",individual replicates,1.076 and 1.001 (2×)
same,C.Raf.R.C RPPA level,replicates,0.876 and 1.165 and 1.143
same,C.Raf_pS338.R.V RPPA level,replicates,0.991 and 1.112 and 1.160
same,CA9.R.C RPPA level,replicates,0.919 and 0.861 and 0.996
same,CD2.M.C RPPA level,replicates,0.941 and 0.909 and 0.958
same,CD4.R.V RPPA level,replicates,0.942 and 0.993 and 1.083
same,CD5.M.C RPPA level,replicates,0.997 and 0.956 and 0.945
same,CD20.R.C RPPA level,replicates,1.250 and 0.955
same,CD26.R.V RPPA level,replicates,1.005 and 0.958 and 1.161
same,CD29.M.V RPPA level,replicates,0.953 and 0.914 and 0.985
same,CD31.M.V RPPA level,replicates,0.978 and 0.997 and 0.990
same,CD38.R.C RPPA level,replicates,0.979 and 1.221 and 1.194
same,CD44.R.C RPPA level,replicates,1.115 and 0.966
same,CD45.M.V RPPA level,replicates,0.921 and 0.967 and 0.985
same,CD49b.M.V RPPA level,replicates,0.971 and 0.954
same,CD68.M.C RPPA level,replicates,1.009 and 1.025 and 0.962
same,CD74.M.V RPPA level,replicates,1.011 and 1.026 and 0.956
same,CD134.R.V RPPA level,replicates,0.989 and 0.997 and 0.996
same,CD171.M.V RPPA level,replicates,0.680 and 0.817 and 0.790
same,CDK1_pT14.R.C RPPA level,replicates,1.334 and 0.655
same,CDK9.R.V RPPA level,replicates,1.161 and 0.839 and 0.893
same,CDKN2A.R.C RPPA level,replicates,0.966 and 1.130 and 0.976
same,CDT1.R.V RPPA level,replicates,0.905 and 0.934
same,CENP.A.R.V RPPA level,replicates,2.651 and 0.953
same,CHD1L.R.V RPPA level,replicates,0.935 and 0.987 and 0.941
same,CIITA.R.C RPPA level,replicates,1.013 and 1.020 and 0.972
same,COG3.R.V RPPA level,replicates,0.941 and 1.097 and 1.256
same,CRABP1.R.C RPPA level,replicates,1.019 and 1.064 and 0.991
same,CRABP2.R.V RPPA level,replicates,0.965 and 1.085 and 0.882
same,CREB_pS133.R.C RPPA level,replicates,0.965 and 1.585 and 1.260
same,CSK.R.C RPPA level,replicates,0.871 and 1.022
same,Calnexin.R.V RPPA level,replicates,0.849 and 0.983
same,Caspase.3.cleaved.R.C RPPA level,replicates,0.952 and 1.128 and 1.028
same,Caspase.7.cleaved..R.C RPPA level,replicates,1.007 and 0.873 and 1.064
same,Caspase.8.M.Q RPPA level,replicates,1.015 and 0.943 and 0.830
same,Caspase.8.cleaved.R.C RPPA level,replicates,0.945
same,Caveolin.1.R.V RPPA level,replicates,0.593 and 0.774 and 1.160
same,Cdc6.R.V RPPA level,replicates,1.141 and 0.773 and 0.673
same,Cdc42.R.C RPPA level,replicates,0.928 and 1.027 and 1.096
same,Chk1.M.C RPPA level,replicates,0.847 and 0.982
same,Chk1_pS296.R.V RPPA level,replicates,0.942 and 1.163 and 1.155
same,Chk1_pS345.R.C RPPA level,replicates,1.030 and 1.165 and 1.125
same,Chk2.M.V RPPA level,replicates,0.868 and 0.876 and 0.992
same,Chk2_pT68.R.C RPPA level,replicates,0.919 and 1.631 and 1.172
same,Claudin.7.R.V RPPA level,replicates,0.970 and 1.594 and 0.965
same,Collagen.VI.R.V RPPA level,replicates,1.150 and 0.775 and 0.928
same,Complex.II.Subunit.M.V RPPA level,replicates,0.977 and 0.871 and 0.988
same,Connexin.43.R.C RPPA level,replicates,0.961 and 1.203 and 1.101
same,Coup.TFII.R.C RPPA level,replicates,0.854 and 0.942 and 1.027
same,Cox2.R.C RPPA level,replicates,1.254 and 0.972 and 1.574
same,Cox.IV.R.V RPPA level,replicates,1.125 and 0.898 and 0.967
same,Creb.R.C RPPA level,replicates,1.005 and 1.024 and 1.173
same,CtIP.R.V RPPA level,replicates,0.804 and 0.988 and 1.058
same,Cyclin.B1.R.V RPPA level,replicates,1.623 and 0.503 and 1.275
same,Cyclin.D1.R.C RPPA level,replicates,1.131 and 1.034 and 0.955

# Reference: publication PMC9127750, “Structure-based design of CDC42 effector interaction inhibitors for the treatment of cancer” (Cell reports, 2022)
